The term pIC50 denotes the IC50 on a negative log10 scale, so that one unit is a factor of ten.

Data on 23 compounds can be found in US20230416227A1, “PLASMA KALLIKREIN INHIBITORS” (Merck Sharp & Dohme LLC, priority 2020, published 2023).

pIC50: −log10 of the molar value.

One test deals with human factor XIa (Homo sapiens, UniProt P03951). The test is described as follows: Factor XIa Assay. Format: biochemical. Particulars: human factor XIa 0.04 nM, substrate GPR-AFC, 30 min pre-incubation at 25° C., pH 7.4; read-out: FXIa IC50.
human factor XIa, sequence (P03951 388-625 limits assumed): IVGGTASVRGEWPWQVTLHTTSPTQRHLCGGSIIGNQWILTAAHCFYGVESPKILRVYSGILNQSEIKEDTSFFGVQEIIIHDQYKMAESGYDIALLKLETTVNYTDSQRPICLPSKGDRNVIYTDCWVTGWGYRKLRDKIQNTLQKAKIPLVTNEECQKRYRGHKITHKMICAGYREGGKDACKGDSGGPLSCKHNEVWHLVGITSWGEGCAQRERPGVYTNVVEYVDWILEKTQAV
human factor XIa, sequence (P03951 19-387 partner limits assumed): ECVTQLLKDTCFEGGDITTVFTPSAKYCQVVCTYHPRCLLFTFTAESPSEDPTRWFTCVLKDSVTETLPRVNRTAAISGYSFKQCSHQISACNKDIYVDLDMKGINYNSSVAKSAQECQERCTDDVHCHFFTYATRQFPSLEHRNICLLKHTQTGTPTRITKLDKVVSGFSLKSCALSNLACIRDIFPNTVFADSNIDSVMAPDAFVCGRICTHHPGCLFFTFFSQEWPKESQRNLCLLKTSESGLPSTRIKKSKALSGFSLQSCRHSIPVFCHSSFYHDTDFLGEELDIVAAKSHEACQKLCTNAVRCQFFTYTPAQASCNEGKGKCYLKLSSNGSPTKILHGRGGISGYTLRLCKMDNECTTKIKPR
A further test has as its target T1, Human plasma kallikrein (Homo sapiens, UniProt P03952).
T1 construct: yields a heavy chain (371 amino acids) and a light chain (248 amino acids); purchased Enzyme Research Laboratories
The test is described as follows: Plasma Kallikrein Assay. Format: biochemical. Particulars: purified Human plasma kallikrein 0.5 nM, substrate Acetyl-K-P-R-AFC, pH 7.4.

T1 sequence (P03952 391-638 limits assumed): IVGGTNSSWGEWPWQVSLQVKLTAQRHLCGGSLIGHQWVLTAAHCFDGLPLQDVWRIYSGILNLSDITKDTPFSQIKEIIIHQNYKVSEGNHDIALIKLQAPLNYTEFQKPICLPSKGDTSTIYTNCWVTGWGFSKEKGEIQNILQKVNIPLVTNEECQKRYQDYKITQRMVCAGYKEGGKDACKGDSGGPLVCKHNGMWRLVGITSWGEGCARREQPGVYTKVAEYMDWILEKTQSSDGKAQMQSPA
T1 sequence (P03952 20-390 partner limits assumed): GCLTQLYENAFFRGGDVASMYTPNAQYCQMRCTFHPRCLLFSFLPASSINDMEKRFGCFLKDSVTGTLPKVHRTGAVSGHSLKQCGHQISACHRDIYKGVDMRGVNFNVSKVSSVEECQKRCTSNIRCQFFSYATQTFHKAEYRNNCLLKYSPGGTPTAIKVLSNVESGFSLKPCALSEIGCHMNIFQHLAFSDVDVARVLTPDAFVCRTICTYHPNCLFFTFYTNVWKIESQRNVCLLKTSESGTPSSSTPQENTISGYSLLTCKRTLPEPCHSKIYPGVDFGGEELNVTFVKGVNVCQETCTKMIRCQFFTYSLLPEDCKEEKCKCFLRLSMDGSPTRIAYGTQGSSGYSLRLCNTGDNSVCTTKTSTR

For the compound `O=C(Nc1cnn(Cc2cnc(N3CCC3)nc2C(F)F)c1)c1cncc(-c2c(C(F)F)ccc(Cl)c2F)n1` [Example 19, N-(1-((2-(Azetidin-1-yl)-4-(difluoromethyl)pyrimidin-5-yl)methyl)-1H-pyrazol-4-yl)-6-(3-chloro-6-(difluoromethyl)-2-fluorophenyl)pyrazine-2-carboxamide], the pIC50 on human factor XIa is 5.33; against Human plasma kallikrein it was 7.84.

Regarding `O=C(Nc1cnn(C2(c3cnc(N4CCC4)nc3)CC2)c1)c1cncc(-c2c(C(F)F)ccc(Cl)c2F)n1` [Example 21, N-(1-(1-(2-(Azetidin-1-yl)pyrimidin-5-yl)cyclopropyl)-1H-pyrazol-4-yl)-6-(3-chloro-6-(difluoromethyl)-2-fluorophenyl)pyrazine-2-carboxamide], the negative logarithm of the IC50 (pIC50) on human factor XIa was 6.01; against Human plasma kallikrein, 7.77.

On to `O=C(Nc1cnn(Cc2cnc(N3CCC3)nc2C2CC2)c1)c1cncc(-c2c(C(F)F)ccc(Cl)c2F)n1` [Example 22, N-(1-((2-(Azetidin-1-yl)-4-cyclopropylpyrimidin-5-yl)methyl)-1H-pyrazol-4-yl)-6-(3-chloro-6-(difluoromethyl)-2-fluorophenyl)pyrazine-2-carboxamide], for which the pIC50 on human factor XIa was 5.36; against Human plasma kallikrein, 7.65.

Regarding `COc1nc(N2CCC2)ncc1Cn1cc(NC(=O)c2cncc(-c3c(C(F)F)ccc(Cl)c3F)n2)cn1` [Example 23, N-(1-((2-(Azetidin-1-yl)-4-methoxypyrimidin-5-yl)methyl)-1H-pyrazol-4-yl)-6-(3-chloro-6-(difluoromethyl)-2-fluorophenyl)pyrazine-2-carboxamide], the figures for the pIC50 at human factor XIa and at Human plasma kallikrein were 5.76 and 7.59, respectively.

In the case of `O=C(Nc1cnn(Cc2cnc(N3CCC3)nc2)n1)c1cncc(-c2c(C(F)F)ccc(Cl)c2F)n1` [Example 25, N-(2-((2-(Azetidin-1-yl)pyrimidin-5-yl)methyl)-2H-1,2,3-triazol-4-yl)-6-(3-chloro-6-(difluoromethyl)-2-fluorophenyl)pyrazine-2-carboxamide], the pIC50 is 5.22 on human factor XIa and 7.38 at Human plasma kallikrein.

`O=C(Nc1cnn(S(=O)(=O)c2ccc(N3CCC3)nc2)c1)c1cncc(-c2c(C(F)F)ccc(Cl)c2F)n1` [Example 26, N-(1-((6-(Azetidin-1-yl)pyridin-3-yl)sulfonyl)-1H-pyrazol-4-yl)-6-(3-chloro-6-(difluoromethyl)-2-fluorophenyl)pyrazine-2-carboxamide]: the pIC50 at human factor XIa was 5.27; on Human plasma kallikrein, 7.34.

`CC(c1cnc(N2CCC2)nc1)n1cc(NC(=O)c2cncc(-c3c(Br)ccc(Cl)c3F)n2)cn1` (stereo not shown) [Example 62, N-(1-(1-(2-(Azetidin-1-yl)pyrimidin-5-yl)ethyl)-1H-pyrazol-4-yl)-6-(6-bromo-3-chloro-2-fluorophenyl)pyrazine-2-carboxamide]: the pIC50 at human factor XIa is 5.67; against Human plasma kallikrein, 7.75.

Turning to `O=C(Nc1cnn(Cc2ccc(N3CCC3)nc2)c1)c1cncc(-c2c(OC(F)F)ccc(Cl)c2F)n1` [Example 63, N-(1-((6-(Azetidin-1-yl)pyridin-3-yl)methyl)-1H-pyrazol-4-yl)-6-(3-chloro-6-(difluoromethoxy)-2-fluorophenyl)pyrazine-2-carboxamide], the pIC50 was 5.30 on human factor XIa and 7.76 against Human plasma kallikrein.

Regarding `O=C(Nc1cnn(Cc2cnc(N3CCC3)nc2)c1)c1cncc(-c2c(OC(F)F)ccc(Cl)c2F)n1` [Example 64, N-(1-((2-(Azetidin-1-yl)pyrimidin-5-yl)methyl)-1H-pyrazol-4-yl)-6-(3-chloro-6-(difluoromethoxy)-2-fluorophenyl)pyrazine-2-carboxamide], the negative logarithm of the IC50 (pIC50) is 6.53 at human factor XIa and 8.02 against Human plasma kallikrein.

With `O=C(Nc1cnn(Cc2cnc(N3C[C@H]4C[C@H]4[C@H]3CO)nc2)c1)c1cncc(-c2c(C(F)F)ccc(Cl)c2F)n1` [Example 73, 6-(3-Chloro-6-(difluoromethyl)-2-fluorophenyl)-N-(1-((2-((1R,2S,5S)-2-(hydroxymethyl)-3-azabicyclo[3.1.0]hexan-3-yl)pyrimidin-5-yl)methyl)-1H-pyrazol-4-yl)pyrazine-2-carboxamide], the pIC50 on human factor XIa is 5.83; against Human plasma kallikrein it was 8.43.

Take `O=C(Nc1cnn(Cc2cnc(N3CC4CC4C3)nc2)c1)c1cncc(-c2c(C(F)F)ccc(Cl)c2F)n1` (stereo not shown) [Example 80, N-(1-((2-(3-Azabicyclo[3.1.0]hexan-3-yl)pyrimidin-5-yl)methyl)-1H-pyrazol-4-yl)-6-(3-chloro-6-(difluoromethyl)-2-fluorophenyl)pyrazine-2-carboxamide]: the pIC50 on human factor XIa is 5.70; against Human plasma kallikrein it was 8.17.

Turning to `NCC1CCCN1c1ncc(Cn2cc(NC(=O)c3cncc(-c4c(C(F)F)ccc(Cl)c4F)n3)cn2)cn1` (stereo not shown) [Example 81, N-(1-((2-(2-(Aminomethyl)pyrrolidin-1-yl)pyrimidin-5-yl)methyl)-1H-pyrazol-4-yl)-6-(3-chloro-6-(difluoromethyl)-2-fluorophenyl)pyrazine-2-carboxamide], the pIC50 on human factor XIa was 5.40; at Human plasma kallikrein it was 8.13.

On to `CC(c1cnc(N2CC(F)(F)C2)nc1)n1cc(NC(=O)c2cncc(-c3c(C(F)F)ccc(Cl)c3F)n2)cn1` (stereo not shown) [Example 82, 6-(3-Chloro-6-(difluoromethyl)-2-fluorophenyl)-N-(1-(1-(2-(3,3-difluoroazetidin-1-yl)pyrimidin-5-yl)ethyl)-1H-pyrazol-4-yl)pyrazine-2-carboxamide], for which the pIC50 is 5.22 on human factor XIa and 8.03 against Human plasma kallikrein.

On to `CC(c1cnc(N2Cc3cccnc3C2)nc1)n1cc(NC(=O)c2cncc(-c3c(C(F)F)ccc(Cl)c3F)n2)cn1` (stereo not shown) [Example 83, 6-(3-Chloro-6-(difluoromethyl)-2-fluorophenyl)-N-(1-(1-(2-(5,7-dihydro-6H-pyrrolo[3,4-b]pyridin-6-yl)pyrimidin-5-yl)ethyl)-1H-pyrazol-4-yl)pyrazine-2-carboxamide], for which the pIC50 at human factor XIa was 5.09; at Human plasma kallikrein, 8.03.

As for `C[C@H](O)[C@H]1[C@H]2C[C@H]2CN1c1ncc(Cn2cc(NC(=O)c3cncc(-c4c(C(F)F)ccc(Cl)c4F)n3)cn2)cn1` [Example 84, 6-(3-Chloro-6-(difluoromethyl)-2-fluorophenyl)-N-(1-((2-((1S,2R,5R)-2-((S)-1-hydroxyethyl)-3-azabicyclo[3.1.0]hexan-3-yl)pyrimidin-5-yl)methyl)-1H-pyrazol-4-yl)pyrazine-2-carboxamide], the negative logarithm of the IC50 (pIC50) is 5.14 on human factor XIa and 7.95 against Human plasma kallikrein.

For the compound `C[C@@H](O)[C@H]1[C@H]2C[C@H]2CN1c1ncc(Cn2cc(NC(=O)c3cncc(-c4c(C(F)F)ccc(Cl)c4F)n3)cn2)cn1` [Example 87, 6-(3-Chloro-6-(difluoromethyl)-2-fluorophenyl)-N-(1-((2-((1S,2R,5R)-2-((R)-1-hydroxyethyl)-3-azabicyclo[3.1.0]hexan-3-yl)pyrimidin-5-yl)methyl)-1H-pyrazol-4-yl)pyrazine-2-carboxamide], the pIC50 on human factor XIa was 5.07; against Human plasma kallikrein, 7.87.

`C[C@@H](c1cnc(N2CC(F)C2)nc1)n1cc(NC(=O)c2cncc(-c3c(C(F)F)ccc(Cl)c3F)n2)cn1` [Example 92, (S)-6-(3-Chloro-6-(difluoromethyl)-2-fluorophenyl)-N-(1-(1-(2-(3-fluoroazetidin-1-yl)pyrimidin-5-yl)ethyl)-1H-pyrazol-4-yl)pyrazine-2-carboxamide]: the pIC50 at human factor XIa was 5.30; at Human plasma kallikrein, 7.73.

Turning to `CC(c1cnc(N2Cc3cnn(C)c3C2)nc1)n1cc(NC(=O)c2cncc(-c3c(C(F)F)ccc(Cl)c3F)n2)cn1` (stereo not shown) [Example 94, 6-(3-Chloro-6-(difluoromethyl)-2-fluorophenyl)-N-(1-(1-(2-(1-methyl-4,6-dihydropyrrolo[3,4-c]pyrazol-5(1H)-yl)pyrimidin-5-yl)ethyl)-1H-pyrazol-4-yl)pyrazine-2-carboxamide], the pIC50 is 5.08 at human factor XIa and 7.70 on Human plasma kallikrein.

With `NC(=O)[C@H]1CCCN1c1ncc(Cn2cc(NC(=O)c3cncc(-c4c(C(F)F)ccc(Cl)c4F)n3)cn2)cn1` [Example 97, (R)-N-(1-((2-(2-Carbamoylpyrrolidin-1-yl)pyrimidin-5-yl)methyl)-1H-pyrazol-4-yl)-6-(3-chloro-6-(difluoromethyl)-2-fluorophenyl)pyrazine-2-carboxamide], the figures for the pIC50 at human factor XIa and at Human plasma kallikrein were 5.05 and 7.57, respectively.

`CC(c1cnc(N2CC3(CC3)C2)nc1)n1cc(NC(=O)c2cncc(-c3c(C(F)F)ccc(Cl)c3F)n2)cn1` (stereo not shown) [Example 99, N-(1-(1-(2-(5-Azaspiro[2.3]hexan-5-yl)pyrimidin-5-yl)ethyl)-1H-pyrazol-4-yl)-6-(3-chloro-6-(difluoromethyl)-2-fluorophenyl)pyrazine-2-carboxamide]: the figures for the pIC50 on human factor XIa and against Human plasma kallikrein were 5.44 and 7.53, respectively.

For `C[C@@H](c1cnc(N2CC(C)(F)C2)nc1)n1cc(NC(=O)c2cncc(-c3c(C(F)F)ccc(Cl)c3F)n2)cn1` [Example 101, (S)-6-(3-Chloro-6-(difluoromethyl)-2-fluorophenyl)-N-(1-(1-(2-(3-fluoro-3-methylazetidin-1-yl)pyrimidin-5-yl)ethyl)-1H-pyrazol-4-yl)pyrazine-2-carboxamide], the pIC50 was 5.12 on human factor XIa and 7.51 at Human plasma kallikrein.

Consider `O=C(Nc1cnn(Cc2cnc(N3CC[C@@H]3CO)nc2)c1)c1cncc(-c2c(C(F)F)ccc(Cl)c2F)n1` [Example 111, (R)-6-(3-Chloro-6-(difluoromethyl)-2-fluorophenyl)-N-(1-((2-(2-(hydroxymethyl)azetidin-1-yl)pyrimidin-5-yl)methyl)-1H-pyrazol-4-yl)pyrazine-2-carboxamide], for which the pIC50 at human factor XIa is 5.52; on Human plasma kallikrein, 7.33.

With `O=C(Nc1cnn(Cc2ccc(N3CCC(O)C3)nc2)c1)c1cncc(-c2c(C(F)F)ccc(Cl)c2F)n1` (stereo not shown) [Example 123, 6-(3-Chloro-6-(difluoromethyl)-2-fluorophenyl)-N-(1-((6-(3-hydroxypyrrolidin-1-yl)pyridin-3-yl)methyl)-1H-pyrazol-4-yl)pyrazine-2-carboxamide], the pIC50 on human factor XIa is 5.48; against Human plasma kallikrein, 7.56.
